We go through 23 compounds from patent US8124647B2 (priority 2002, dated 2012).

The target of this test is T1, human androgen receptor (Homo sapiens, UniProt P10275).
T1 construct: expressed in transfected cells; host or cells: CHO cells, cell line CHO-AR-pMMTV-LUC 1G12-A5-CA
T1 sequence (P10275 1-920): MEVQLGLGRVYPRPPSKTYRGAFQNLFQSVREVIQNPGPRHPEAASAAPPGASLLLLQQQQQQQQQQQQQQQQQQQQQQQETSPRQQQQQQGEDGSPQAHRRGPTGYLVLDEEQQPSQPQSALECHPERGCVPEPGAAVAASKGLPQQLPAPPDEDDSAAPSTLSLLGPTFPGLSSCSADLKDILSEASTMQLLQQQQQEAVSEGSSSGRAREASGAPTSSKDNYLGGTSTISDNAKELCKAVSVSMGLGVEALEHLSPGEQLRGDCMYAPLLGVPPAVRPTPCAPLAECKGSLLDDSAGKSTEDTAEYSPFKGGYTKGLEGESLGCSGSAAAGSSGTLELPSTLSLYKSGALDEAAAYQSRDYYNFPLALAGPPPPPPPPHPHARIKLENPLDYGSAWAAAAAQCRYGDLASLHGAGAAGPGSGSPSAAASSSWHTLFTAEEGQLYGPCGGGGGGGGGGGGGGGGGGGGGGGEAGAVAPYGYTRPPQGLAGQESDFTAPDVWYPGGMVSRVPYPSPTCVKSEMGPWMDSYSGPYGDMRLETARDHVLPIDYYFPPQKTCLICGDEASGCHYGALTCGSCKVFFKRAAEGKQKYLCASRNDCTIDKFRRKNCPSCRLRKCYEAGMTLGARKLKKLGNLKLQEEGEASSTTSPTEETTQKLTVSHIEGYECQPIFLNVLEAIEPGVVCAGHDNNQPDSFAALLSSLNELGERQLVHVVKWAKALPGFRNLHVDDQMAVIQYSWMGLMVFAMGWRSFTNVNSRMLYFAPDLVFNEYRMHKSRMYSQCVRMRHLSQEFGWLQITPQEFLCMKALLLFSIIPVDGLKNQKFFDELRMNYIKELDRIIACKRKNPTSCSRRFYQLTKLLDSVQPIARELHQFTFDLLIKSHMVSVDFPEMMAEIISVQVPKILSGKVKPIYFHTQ
Kind of test: androgenic activity (EC50, potency, efficacy), transactivation bioassay in CHO-AR-pMMTV-LUC cells in the presence of 0.1 μmol/l onapristone (Table 5). The format is cell-based. To be noted: for ago potency: potency expressed as percentage of DHT activity, in the presence of 0.1 μmol/l onapristone; for Emax: read-out: ago efficacy. Here is the method:
The androgenic activity (EC50, potency, and efficacy) of the compounds in Table 5 was determined in an in vitro bioassay of Chinese hamster ovary (CHO) cells stably transfected with the human androgen receptor expression plasmid and a reporter plasmid in which the MMTV promoter is linked to the luciferase reporter gene. The cell line CHO-AR-pMMTV-LUC 1G12-A5-CA is described in Schoonen et al. (J. Steroid Biochem. Moles. Biol. […]; 74: 213-222). The androgen receptor activity of compounds was determined in the presence of 0.1 μmol/l onapristone. The maximal efficacy in the presence of 100 nmol/l DHT was set as 100%. The potencies are expressed as percentage of DHT activity.

[1] abbreviates: maximal intrinsic activity, activity in the presence of 100 nM DHT set at 1.00, CHO-AR-pMMTV-LUC cells, 0.1 μmol/l onapristone.

Where two headings read alike, the source gives them in different places.

With `Cl.N#Cc1ccc2c(Sc3ccccc3[N+](=O)[O-])cn(Cc3ccccn3)c2c1` [Compound 120, 3-(2-Nitro-phenylsulfanyl)-1-pyridin-2-ylmethyl-1H-indol-6-carbonitrile monohydrochloride], under setting [1], the ago efficacy result was “++ (≧0.80)”. Further, the ago potency result (CHO-AR-pMMTV-LUC cells) is on record as “++ (>5%)”.

With `O=CNc1ccc2c(Sc3ccccc3[N+](=O)[O-])cn(Cc3cncnc3)c2c1` [Compound 118, N-[3-(2-Nitro-phenylsulfanyl)-1-pyrimidin-5-ylmethyl-1H-indol-6-yl]-formamide], the Emax under setting [1] was 50 to 80%. For the same compound, where the note is “CHO-AR-pMMTV-LUC cells”, the ago potency entry is reported as “++ (>5%)”.

For `COc1ccc2c(Sc3ccccc3[N+](=O)[O-])cn(Cc3cnccn3)c2c1` [Compound 117, 6-Methoxy-3-(2-nitro-phenylsulfanyl)-1-pyrazin-2-ylmethyl-1H-indole], the Emax under setting [1] is 50 to 80%. Further, the ago potency result (CHO-AR-pMMTV-LUC cells) was “+ (between 1% and 5%)”.

`N#Cc1ccc2c(Sc3ccccc3[N+](=O)[O-])cn(Cc3cncnc3)c2c1` [Compound 123, 3-(2-Nitro-phenylsulfanyl)-1-pyrimidin-5-ylmethyl-1H-indole-6-carbonitrile]: under setting [1], the Emax was above 80%. Further, the ago potency result (CHO-AR-pMMTV-LUC cells) is recorded as “++ (>5%)”.

For the compound `N#Cc1ccc2c(Sc3ccccc3[N+](=O)[O-])cn(Cc3cccnc3)c2c1` [Compound 121, 3-(2-Nitro-phenylsulfanyl)-1-pyridin-3-ylmethyl-1H-indole-6-carbonitrile], the Emax under setting [1] is above 80%. Further, the ago potency result (CHO-AR-pMMTV-LUC cells) was “+ (between 1% and 5%)”.

As for `COc1ccc2c(Sc3ccccc3[N+](=O)[O-])cn(Cc3ccncc3)c2c1` [Compound 93, 6-Methoxy-3-(2-nitro-phenylsulfanyl)-1-pyridin-4-ylmethyl-1H-indole], the Emax under setting [1] lay in the range of 50 to 80%. Further, the ago potency entry (CHO-AR-pMMTV-LUC cells) was “± (between 0.1% and 1%)”.

For `CCNC(=O)c1ccc2c(Sc3ccccc3[N+](=O)[O-])cn(Cc3cccnc3)c2c1` [Compound 113, 3-(2-Nitro-phenylsulfanyl)-1-pyridin-3-ylmethyl-1H-indole-6-carboxylic acid ethylamide], under setting [1], the Emax was 50 to 80%. Also, for the setting “CHO-AR-pMMTV-LUC cells”, the ago potency entry is “+ (between 1% and 5%)”.

For `O=C(CF)Nc1ccc2c(Sc3ccccc3[N+](=O)[O-])cn(Cc3cccnc3)c2c1` [Compound 104, 2-Fluoro-N-[3-(2-nitro-phenylsulfanyl)-1-pyridin-3-ylmethyl-1H-indol-6-yl]-acetamide], the Emax was below 20%. For the same compound, the ago potency result (CHO-AR-pMMTV-LUC cells) was “+ (between 1% and 5%)”.

For the compound `CCC(=O)Nc1ccc2c(Sc3ccccc3[N+](=O)[O-])cn(Cc3cc(F)cc(F)c3)c2c1` [Compound 99, N-[1-(3,5-Difluoro-benzyl)-3-(2-nitro-phenylsulfanyl)-1H-indol-6-yl]-propionamide], under setting [1], the Emax was in the range of 50 to 80%. Moreover, the ago potency result (CHO-AR-pMMTV-LUC cells) was “± (between 0.1% and 1%)”.

Consider `CNC(=O)c1ccc2c(Sc3ccccc3[N+](=O)[O-])cn(Cc3ccccn3)c2c1` [Compound 110, 3-(2-Nitro-phenylsulfanyl)-1-pyridin-2-ylmethyl-1H-indole-6-carboxylic acid methylamide], for which the Emax under setting [1] lay within 50 to 80%. Further, for the setting “CHO-AR-pMMTV-LUC cells”, the ago potency result is “+ (between 1% and 5%)”.

In the case of `N#Cc1ccc2c(Sc3ccccc3[N+](=O)[O-])cn(Cc3ccccn3)c2c1` [Compound 119, 3-(2-Nitro-phenylsulfanyl)-1-pyridin-2-ylmethyl-1H-indole-6-carbonitrile], the Emax under setting [1] was above 80%. Also, the ago potency entry (CHO-AR-pMMTV-LUC cells) is given as “++ (>5%)”.

For the compound `CCC(=O)Nc1ccc2c(Sc3ccccc3[N+](=O)[O-])cn(Cc3cccnc3)c2c1` [Compound 105, N-[3-(2-Nitro-phenylsulfany)-1-pyridin-3-ylmethyl-1H-indol-6-yl]-propionamide], the Emax under setting [1] was in the range of 20 to 50%. The ago potency result (CHO-AR-pMMTV-LUC cells) is “+ (between 1% and 5%)”.

Turning to `CCC(=O)Nc1ccc2c(Sc3ccccc3[N+](=O)[O-])cn(Cc3ccccn3)c2c1` [Compound 102, N-[3-(2-Nitro-phenylsulfanyl)-1-pyridin-2-ylmethyl-1H-indol-6-yl]-propionamide], under setting [1], the Emax is 50 to 80%. Also, the ago potency result (CHO-AR-pMMTV-LUC cells) is “+ (between 1% and 5%)”.

In the case of `CS(=O)(=O)Nc1ccc2c(Sc3ccccc3[N+](=O)[O-])cn(Cc3cc(F)cc(F)c3)c2c1` [Compound 106, N-[1-(3,5-Difluoro-benzyl)-3-(2-nitro-phenylsulfanyl)-1H-indol-6-yl]-methanesulfonamide], the Emax under setting [1] is above 80%. Further, under “CHO-AR-pMMTV-LUC cells”, the ago potency entry is “+ (between 1% and 5%)”.

Turning to `COc1ccc2c(Sc3ccccc3[N+](=O)[O-])cn(Cc3cncnc3)c2c1` [Compound 115, 6-Methoxy-3-(2-nitro-phenylsulfanyl)-1-pyrimidin-5-ylmethyl-1H-indole], the Emax under setting [1] is 50 to 80%. Further, for the setting “CHO-AR-pMMTV-LUC cells”, the ago potency result was “++ (>5%)”.

Consider `N#Cc1ccc2c(Sc3ccccc3[N+](=O)[O-])cn(Cc3ccncn3)c2c1` [Compound 124, 3-(2-Nitro-phenylsulfanyl)-1-pyrimidin-4-ylmethyl-1H-indole-6-carbonitrile], for which the Emax under setting [1] is above 80%. For the same compound, the ago potency entry (CHO-AR-pMMTV-LUC cells) was “++ (>5%)”.

Regarding `COc1ccc2c(Sc3ccccc3[N+](=O)[O-])cn(Cc3ccncn3)c2c1` [Compound 116, 6-Methoxy-3-(2-nitro-phenylsulfanyl)-1-pyrimidin-4-ylmethyl-1H-indole], the Emax under setting [1] lay within 50 to 80%. In addition, where the note is “CHO-AR-pMMTV-LUC cells”, the ago potency result was “+ (between 1% and 5%)”.

On to `O=C(Nc1ccc2c(Sc3ccccc3[N+](=O)[O-])cn(Cc3cc(F)cc(F)c3)c2c1)C(F)F` [Compound 98, N-[1-(3,5-Difluoro-benzyl)-3-(2-nitro-phenylsulfanyl)-1H-indol-6-yl]-2,2-difluoro-acetamide], for which, under setting [1], the Emax is 50 to 80%. In addition, the ago potency entry (CHO-AR-pMMTV-LUC cells) is reported as “++ (>5%)”.

Regarding `Cn1cnc(S(=O)(=O)Nc2ccc3c(Sc4ccccc4[N+](=O)[O-])cn(Cc4cc(F)cc(F)c4)c3c2)c1` [Compound 108, 1-Methyl-1H-imidazole-4-sulfonic acid [1-(3,5-difluoro-benzyl)-3-(2-nitro-phenylsulfanyl)-1H-indol-6-yl]-amide], the Emax under setting [1] is above 80%. In addition, the ago potency result (CHO-AR-pMMTV-LUC cells) is “+ (between 1% and 5%)”.

Turning to `COc1ccc2c(Sc3ccccc3[N+](=O)[O-])cn(Cc3cc(F)c(F)c(F)c3)c2c1` [Compound 94, 6-Methoxy-3-(2-nitro-phenylsulfanyl)-1-(3,4,5-trifluoro-benzyl)-1H-indole], under setting [1], the Emax is above 80%. Moreover, under “CHO-AR-pMMTV-LUC cells”, the ago potency entry is “+ (between 1% and 5%)”.

As for `N#Cc1ccc2c(Sc3ccccc3[N+](=O)[O-])cn(Cc3ccncc3)c2c1` [Compound 122, 3-(2-Nitro-phenylsulfanyl)-1-pyridin-4-ylmethyl-1H-indole-6-carbonitrile], the Emax under setting [1] was 50 to 80%. In addition, the ago potency entry (CHO-AR-pMMTV-LUC cells) was “+ (between 1% and 5%)”.

Consider `CC(=O)Nc1ccc2c(Sc3ccccc3[N+](=O)[O-])cn(Cc3ccccn3)c2c1` [Compound 101, N-[3-(2-Nitro-phenylsulfanyl]-1-pyridin-2-ylmethyl-1H-indol-6-yl]-acetamide], for which the Emax under setting [1] was 50 to 80%. Further, the ago potency entry (CHO-AR-pMMTV-LUC cells) was “+ (between 1% and 5%)”.

`COc1ccc2c(Sc3ccccc3[N+](=O)[O-])cn(Cc3cc(F)cc(F)c3F)c2c1` [Compound 95, 6-Methoxy-3-(2-nitro-phenylsulfanyl)-1-(2,3,5-trifluoro-benzyl)-1H-indole]: the Emax under setting [1] was above 80%. For the same compound, where the note is “CHO-AR-pMMTV-LUC cells”, the ago potency entry is “± (between 0.1% and 1%)”.
